Results on one molecule are retold here after patent publication US20220306603A1, “TARGETING DNA REPAIR IN TUMOR CELLS VIA INHIBITION OF ERCC1-XPF” (The Governors of the University of Alberta, priority 2019, published 2022).

Entries after “also recorded” stand apart in the source; their conditions may differ.

For orientation: IC50 means the midpoint of a concentration-inhibition curve. A higher IC50 goes with a need for much substance.

The target in one data set is CYP2D6 (Homo sapiens, UniProt P10635). As to the kind of experiment: CYP450 inhibition, CYP2D6.
Chain of CYP2D6 (P10635 whole entry): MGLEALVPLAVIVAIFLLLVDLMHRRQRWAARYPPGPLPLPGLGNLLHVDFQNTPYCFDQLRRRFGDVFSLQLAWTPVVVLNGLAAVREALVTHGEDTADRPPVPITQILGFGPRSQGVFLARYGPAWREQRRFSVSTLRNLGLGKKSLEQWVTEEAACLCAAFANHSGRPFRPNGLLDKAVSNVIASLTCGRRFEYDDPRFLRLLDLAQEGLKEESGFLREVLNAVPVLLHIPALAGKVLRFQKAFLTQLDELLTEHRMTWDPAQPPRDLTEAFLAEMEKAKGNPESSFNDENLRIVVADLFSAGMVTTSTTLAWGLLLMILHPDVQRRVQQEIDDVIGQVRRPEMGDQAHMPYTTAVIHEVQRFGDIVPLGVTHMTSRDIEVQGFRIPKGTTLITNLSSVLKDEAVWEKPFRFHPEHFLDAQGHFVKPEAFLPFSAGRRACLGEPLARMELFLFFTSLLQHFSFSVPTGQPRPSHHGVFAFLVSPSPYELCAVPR
Another data set addresses T1, ERCC1-XPF (Homo sapiens, UniProt Q92889).
T1 construct: His6; made in house; host or cells: E. coli BL21 (DE3)
T1 sequence (Q92889 1-916): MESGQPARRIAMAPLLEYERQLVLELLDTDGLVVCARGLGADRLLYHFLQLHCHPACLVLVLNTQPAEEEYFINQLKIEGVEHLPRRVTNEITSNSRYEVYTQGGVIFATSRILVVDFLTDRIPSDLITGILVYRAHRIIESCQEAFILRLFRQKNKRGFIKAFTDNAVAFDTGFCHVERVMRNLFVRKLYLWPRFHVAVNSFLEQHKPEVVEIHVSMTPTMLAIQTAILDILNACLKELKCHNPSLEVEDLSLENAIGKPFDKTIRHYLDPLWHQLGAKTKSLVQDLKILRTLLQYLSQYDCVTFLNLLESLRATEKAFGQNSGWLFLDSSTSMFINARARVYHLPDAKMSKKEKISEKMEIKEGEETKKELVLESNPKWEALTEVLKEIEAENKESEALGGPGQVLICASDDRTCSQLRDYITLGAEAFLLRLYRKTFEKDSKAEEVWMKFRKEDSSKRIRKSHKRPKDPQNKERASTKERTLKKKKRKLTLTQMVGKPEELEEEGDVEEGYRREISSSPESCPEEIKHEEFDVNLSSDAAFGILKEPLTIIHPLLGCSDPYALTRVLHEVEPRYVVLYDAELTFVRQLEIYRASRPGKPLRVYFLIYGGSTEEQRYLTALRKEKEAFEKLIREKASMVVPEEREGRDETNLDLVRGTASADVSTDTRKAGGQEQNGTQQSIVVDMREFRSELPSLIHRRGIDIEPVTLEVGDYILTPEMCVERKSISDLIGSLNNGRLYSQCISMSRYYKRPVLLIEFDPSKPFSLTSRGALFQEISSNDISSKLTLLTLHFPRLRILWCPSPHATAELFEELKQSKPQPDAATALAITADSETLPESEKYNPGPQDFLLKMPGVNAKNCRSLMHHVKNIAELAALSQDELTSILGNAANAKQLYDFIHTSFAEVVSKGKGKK
As to the kind of experiment: Microplate fluorescence incision assay of ERCC1-XPF endonuclease activity. The class given is biochemical. Conditions: for inhibition of ERCC1-XPF endonuclease activity (in words): compounds 10 μM each.

The test system of data set [1] is five CYP450 tested enzymes. As to the kind of experiment: ADME screening: CYP inhibition (five CYP450 enzymes). Conditions: Table 8.
The test system of data set [2] is five CYP450 enzymes (CYP1A2, CYP2C9, CYP2C19, CYP2D6, CYP3A4-M). The description is as above. To be noted: human.
The target of a further data set is CYP3A4-M (Homo sapiens, UniProt P08684). As to the kind of experiment: CYP450 inhibition, CYP3A4-M.
Chain of CYP3A4-M (P08684 whole entry): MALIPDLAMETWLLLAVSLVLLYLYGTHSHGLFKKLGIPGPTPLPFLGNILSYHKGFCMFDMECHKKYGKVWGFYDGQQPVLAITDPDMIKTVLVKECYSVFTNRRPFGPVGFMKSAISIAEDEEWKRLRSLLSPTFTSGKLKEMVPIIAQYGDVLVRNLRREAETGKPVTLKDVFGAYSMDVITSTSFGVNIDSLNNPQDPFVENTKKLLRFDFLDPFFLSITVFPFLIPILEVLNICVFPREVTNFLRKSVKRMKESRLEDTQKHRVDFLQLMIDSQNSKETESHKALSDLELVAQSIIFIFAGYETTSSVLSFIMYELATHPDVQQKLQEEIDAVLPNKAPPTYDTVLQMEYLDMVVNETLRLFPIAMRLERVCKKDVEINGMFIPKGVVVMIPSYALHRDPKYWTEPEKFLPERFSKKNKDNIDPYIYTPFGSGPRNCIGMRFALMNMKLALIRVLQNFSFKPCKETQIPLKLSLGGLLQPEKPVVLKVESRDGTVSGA
Data set [3] relates to HCT116 cells. The data set can be described thus: Clonogenic survival assay, UV treatment. The class given is cell-based, human. Conditions: 254 nm UV 0-10 J/m^2; compound 0.5-4 μM. How it is done:
UV treatment: HCT116 cells (100-800 cells depending on the UV dose) were plated in triplicate in 60-mm petri dishes. The cells were incubated overnight at 37° C. in a humidified atmosphere containing 5% CO2 to allow for cell attachment. […] Medium was removed again, and cells were exposed to increasing doses (0-10 J/m^2) of UV-C radiation and then incubated for a further 10 days in the presence of inhibitor at 37° C. in a 5% CO2 atmosphere to allow for colony formation. After this period plates were stained with crystal violet and colonies were counted using a Colcount instrument (Oxford Optronix, Abingdon UK). Finally, plating efficiency and surviving fraction were calculated.

Another data set deals with serum proteins. As to the kind of experiment: ADME screening: serum protein binding. Conditions: Table 8. The format is in vitro ADME.
Data set [4] can be described thus: Hepatocyte stability in vitro. The class given is in vitro ADME. To be noted: Table 8.
The test system of data set [5] is HCT116 cells. The data set can be described thus: Clonogenic survival assay, cyclophosphamide treatment. Conditions: cyclophosphamide 0-300 μM, compound 1-4 μM. The class given is cell-based, human. The procedure:
Plates were incubated for another 8 days at 37° C. in a 5% CO2 atmosphere for colony formation. After this period plates were stained with crystal violet, colonies were counted, and plating efficiency and surviving fraction were calculated.

In a further data set the target is T2, CYP1A2 (Homo sapiens, UniProt P05177).
T2 sequence (P05177 1-516): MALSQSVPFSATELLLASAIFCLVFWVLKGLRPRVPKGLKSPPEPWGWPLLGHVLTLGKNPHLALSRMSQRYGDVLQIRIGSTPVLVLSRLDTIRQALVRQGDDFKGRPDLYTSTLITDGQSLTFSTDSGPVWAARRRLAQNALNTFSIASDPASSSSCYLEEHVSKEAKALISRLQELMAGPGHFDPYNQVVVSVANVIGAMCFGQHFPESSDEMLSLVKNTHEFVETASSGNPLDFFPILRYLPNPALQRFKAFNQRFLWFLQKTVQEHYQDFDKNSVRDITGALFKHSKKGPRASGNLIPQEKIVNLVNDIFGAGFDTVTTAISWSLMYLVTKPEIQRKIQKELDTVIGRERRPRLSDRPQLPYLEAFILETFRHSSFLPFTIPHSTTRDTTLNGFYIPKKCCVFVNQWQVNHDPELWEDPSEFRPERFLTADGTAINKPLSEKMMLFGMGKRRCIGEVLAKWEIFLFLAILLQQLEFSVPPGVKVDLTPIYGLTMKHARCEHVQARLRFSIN
The data set can be described thus: CYP450 inhibition, CYP1A2.

For `COc1ccc2nc3cc(Cl)ccc3c(Nc3ccc(O)c(CN4CCN(CCN(C)C)CC4)c3)c2c1` [Compound A4, 4-((6-Chloro-2-methoxyacridin-9-yl)amino)-2-((4-(2-(dimethylamino)ethyl)piperazin-1-yl)methyl) phenol], on CYP2D6, the “inhibition of CYP2D6 (in words)” value is given as “weak inhibitor”. In addition, the “enzyme activity after pre-incubation of ERCC1-XPF with compound (in words)” value at ERCC1-XPF (3 μM compound, 10% or 5% DMSO) is “time-dependent loss of enzyme activity”. In addition, the “inhibition of ERCC1-XPF endonuclease activity (in words)” value against ERCC1-XPF was “marked capacity to inhibit; also recorded: potent inhibitors”; at ERCC1-XPF (listed as Gen A-4), “significantly better inhibitory properties”. In data set [1], the “CVP inhibition (5 enzyme) (rating)” value is “Good”. Also, the IC50 was no less than 1 µM in [2] and 6.4 µM at CYP1A2. On CYP3A4-M, the “inhibition of CYP3A4-M (in words)” value was “weak inhibitor”. Also, the “sensitisation to UV radiation, clonogenic survival (in words)” value with HCT116 cells [3] is “significantly reduced survival”. Besides, the “Serum protein binding (% bound)” value in the data set with serum proteins is recorded as “(99.9) % bound”. In addition, in the data set on serum proteins, the “Serum protein binding (in words)” value is “Strong”. Further, the “Hepatocyte stability in vitro CLint (in words)” value in data set [4] is “(medium”. Besides, the “sensitisation to cyclophosphamide, clonogenic survival (in words)” value with HCT116 cells [5] is reported as “no colonies were observed; also recorded: significantly sensitized the cells to cyclophosphamide; also recorded: no colonies were detected”; with HCT116 cells [5] (listed as Gen A4) it was “significantly sensitized the cells to cyclophosphamide”.
